Where two headings read alike, the source gives them in different places.
Experiments:
HCT116 pERK = test: Phospho-ERK inhibition, AlphaLISA SureFire Ultra p-ERK 1/2; type: cell-based, human; details: for IC50: 1 h treatment; for HCT116 (Ymin %): lowest value of the pERK IC50 curve
Method: (§1) All cancer cell lines (A375, A101D, A2058, RKO, HT29 SK-MEL 30, IPC298, HepG2, HCT-116, Lovo, SW620, SW480, NCI-H358, NCI-H2122, Calu-6, NCIH2087, NCIH1755, NCIH1666 and Mewo) were obtained from ATCC and cultured in RPMI-1640 medium (Gibco) supplemented with 5% heat inactivated fetal bovine serum (FBS, Wisent) at 37° C. under 5% CO2. Cells were maintained in T175 flasks (Greiner). They were passaged by removing the culture medium, washing once in 10 mL of room temperature Phosphate Buffered Saline (PBS; Wisent) and incubating at 37° C. with 2 mL of 0.05% Trypsin (Thermo-Fisher). Trypsin was then inactivated by adding complete growth medium and the cells were then replated in a T175 culture dish at the appropriate dilution. All cell lines were routinely tested for mycoplasma contamination. Tissue type and mutational status of each cell line can be found in Table B.
(§2) AlphaLISA® SureFire® Ultra™ p-ERK ½ (Thr202/Tyr204) analysis was conducted on cells plated in 100 μL of complete RPMI-1640 growth medium in 96-well flat-bottomed transparent dishes (Costar) at a density indicated in Table C. Cells were maintained overnight at 37° C. under 5% CO2 before treatment with compounds' dilution series for one hour. The cell density in cells/cm^2 corresponds to cell number divided by the area of one well of a 96-well plate ([…]).
(§3) In a dilution series 100 μL/well of test substance dilution prepared in complete RPMI-1640 growth media was added to the cells. The dilution series is selected so that ten concentrations cover a range from 30 μM or 10 μM to 0.33 nM. If necessary, the initial concentration of 10 μM is increased to 100 μM or lowered to 1 μM (as in the case of A375 and NCIH1666 cells, which are generally more sensitive to the compounds) and further dilution is carried out accordingly. The final concentration of DMSO in the assay is set at 0.5%.
(§4) After treatment, media was removed, and cells were lysed in 50 μL of 1× AlphaScreen Ultra Lysis Buffer (Perkin Elmer). The AlphaLISA® SureFire® Ultra™ p-ERK ½ (Thr202/Tyr2O4) (PerkinElmer) reactions were performed with 5 μL of cell lysate according to the manufacturer's specifications in 384-well proxyplates (Perkin Elmer) followed by overnight incubation of the reactions at room temperature in a humidified chamber. After completion of the reactions, the signals were recorded on an EnVision plate reader (Perkin Elmer) using built in AlphaLISA® settings.
(§5) The effect of each compound dilution on the pERK signal was expressed in % inhibition and calculated as follows. An internal 100% inhibition control (1 μM trametinib, cat. No. HY-10999; MedChem Express; CAS No. 871700-17-3) was included in each plate and used as a measure of pERK background. First, the value obtained for trametinib was subtracted from each data point. The average of DMSO (vehicle) controls (set as 0% inhibition) was established and used to calculate % inhibition:
(§6) The ability of each compound to inhibit pERK signal was expressed as an IC50 value obtained by plotting the inhibition values for each data point of a dilution series and fitting the obtained curves using a log(agonist) versus response−variable slope (four parameters) function using GraphPadPrism (V7.0).
(§7) When present, paradoxical pERK induction is inferred from the negative % inhibition values observed in the pERK IC50 curves of a compound.

SW480 pERK = test: as above; type: cell-based, human; details: for IC50: 1 h treatment; for SW480 (Ymin %): lowest value of the pERK IC50 curve
Method: as §1, §2, §3, §4, §5, §6, §7

[1] = Table 2, read-out: SW480 PERK IC50 (UM)
[2] = Table 3, read-out: SW480 PERK IC50

Row | Structure (SMILES) | IC50 (HCT116 pERK; Table 2) [µM] | HCT116 (Ymin %) (HCT116 pERK; Table 2) [%] | IC50 (SW480 pERK; [1]) [µM] | SW480 (Ymin %) (SW480 pERK; Table 2) [%] | IC50 (HCT116 pERK; Table 3) [µM] | HCT116 (Ymin %) (HCT116 pERK; Table 3) [%] | IC50 (SW480 pERK; [2]) [µM] | SW480 (Ymin %) (SW480 pERK; Table 3) [%]
1 | CSc1ncc2ncnc(Nc3c(F)ccc(NS(=O)(=O)c4ccc(Cl)cc4C)c3F)c2n1 [Example 22] | 1 to 10 | −1 | 1 to 10 | −5 | – | – | – | –
2 | CSc1ncc2ncnc(Nc3c(F)ccc(NS(=O)(=O)c4ccc(C)cc4C)c3F)c2n1 [Example 23] | 1 to 10 | 0 | 1 to 10 | −7 | – | – | – | –
3 | CSc1ncc2ncnc(Nc3c(F)ccc(NS(=O)(=O)N4CCCC4)c3F)c2n1 [Example 24] | 10 to 30 | 10 | 1 to 10 | 13 | – | – | – | –
4 | COC1CN(S(=O)(=O)Nc2ccc(F)c(Nc3ncnc4cnc(SC)nc34)c2F)C1 [Example 25] | 10 to 30 | 7 | 10 to 30 | −6 | – | – | – | –
5 | CSc1ncc2ncnc(Nc3c(F)ccc(NS(=O)(=O)N4CCC(F)(F)C4)c3F)c2n1 [Example 27] | 10 to 30 | −6 | – | – | – | – | – | –
6 | COc1ccc(S(=O)(=O)Nc2ccc(F)c(Nc3ncnc4cnc(-n5cnc(C)c5)nc34)c2F)cc1OC [Example 30] | – | – | – | – | 1 to 10 | −6 | 10 to 30 | −5
7 | COc1ccc(S(=O)(=O)Nc2ccc(F)c(Nc3ncnc4cnc(N5CC[C@H](F)C5)nc34)c2F)cc1 [Example 31] | – | – | – | – | 1 to 10 | 13 | 1 to 10 | 11
8 | COc1ccc(S(=O)(=O)Nc2ccc(F)c(Nc3ncnc4cnc(-n5ccnc5C)nc34)c2F)cc1 [Example 32] | – | – | – | – | 10 to 30 | 1 | 1 to 10 | 8
9 | N#Cc1ccccc1S(=O)(=O)Nc1ccc(F)c(Nc2ncnc3cnc(N4CC[C@H](F)C4)nc23)c1F [Example 33] | – | – | – | – | 10 to 30 | −4 | 1 to 10 | 13
10 | Cc1ncn(-c2ncc3ncnc(Nc4c(F)ccc(NS(=O)(=O)c5ccccc5C#N)c4F)c3n2)c1C [Example 34] | – | – | – | – | 10 to 30 | −3 | 1 to 10 | −2.0
11 | COc1ccc(S(=O)(=O)Nc2ccc(F)c(Nc3ncnc4cnc(-n5ccnc5)nc34)c2F)cc1 [Example 35] | – | – | – | – | 10 to 30 | −4 | 1 to 10 | 14
12 | COc1ccc(S(=O)(=O)Nc2ccc(F)c(Nc3ncnc4cnc(-n5cnc6ccccc65)nc34)c2F)cc1 [Example 36] | – | – | – | – | 1 to 10 | 10 | 1 to 10 | 10
13 | COc1ccc(S(=O)(=O)Nc2ccc(F)c(Nc3ncnc4cnc(-n5cc(C)nc5C)nc34)c2F)cc1 [Example 37] | – | – | – | – | 1 to 10 | −5 | 1 to 10 | −6
14 | COc1ccc(S(=O)(=O)Nc2ccc(F)c(Nc3ncnc4cnc(N5CC[C@@H](F)C5)nc34)c2F)cc1 [Example 38] | – | – | – | – | 10 to 30 | −1 | 10 to 30 | −3
15 | COc1ccc(S(=O)(=O)Nc2ccc(F)c(Nc3ncnc4cnc(N5CCC(F)(F)C5)nc34)c2F)cc1 [Example 39] | – | – | – | – | 10 to 30 | 5 | 10 to 30 | −3
16 | COc1ccc(S(=O)(=O)Nc2ccc(F)c(Nc3ncnc4cnc(-n5cnc(C)c5C)nc34)c2F)cc1 [Example 40] | – | – | – | – | 1 to 10 | 12 | 1 to 10 | −7
17 | COc1ccc(S(=O)(=O)Nc2ccc(F)c(Nc3ncnc4cnc(N5CCC(O)C5)nc34)c2F)cc1 (stereo not shown) [Example 41] | – | – | – | – | 10 to 30 | 13 | 10 to 30 | 6
18 | COc1ccc(S(=O)(=O)Nc2ccc(F)c(Nc3ncnc4cnc(N5CCC(O)C5)nc34)c2F)cc1 (stereo not shown) [Example 42] | – | – | – | – | 10 to 30 | −2 | 10 to 30 | 11

Source: patent US20240239801A1, “PYRIMIDO[5,4,D]PYRIMIDINE COMPOUNDS, COMPOSITIONS COMPRISING THEM AND USES THEREOF” (Université de Montréal, priority 2021, published 2024)
